How the values were obtained:
Assay type in all cases: cell-based, Human
[1] = tested on: DU145 JunD overexpressed (D1) cells; experiment: Cell proliferation assay (cell counting) after JQ1 treatment; settings: 5 μM JQ1, 72 hrs, DU145 D1 (JunD overexpressing) cells, vs DMSO control, p<0.001
Description: (§1) Human prostate cancer cell lines (PC3 and DU145) were purchased from ATCC (Manassas, Va.). Cells were cultured in the recommended growth media [MEM media supplemented with 5% fetal bovine serum (FBS)] in 100% humidity at 37° C. with 5% CO2 as described previously. DU145 cells overexpressing JunD (D1), generated from a previous study were cultured as above, with an addition of […] G418 [29].
(§2) DU145 vector and DU145 JunD overexpressed (D1) cells plated at a density of 2×10^4 cells/ml in 24 well plates (for cell proliferation assays) or at a density of 1.5×10^5 cell/ml in 6 well plates (for cell lysates) were treated in the presence or absence of 5 μM JQ1 for 72 hrs. Control cells were treated with DMSO. Cells were then counted using a hemacytometer and cell lysates were collected for western blot analyses.

DU145 vector cells = experiment: as above; settings: 5 μM JQ1, 72 hrs, vs DMSO control, p<0.001
Description: as §1, §2

[2] = tested on: JunD target genes protein levels in DU145 vector cells; experiment: Western blot of JunD target gene protein levels after JQ1 treatment; settings: 5 μM JQ1, 72 hrs
Description: as §2
(§3) Following siRNA transient transfections, PC3 and DU145 cell lysates from several independent experiments were collected as previously described. In brief, equal amounts of protein (50 μg) were separated by electrophoresis using 10% SDS-polyacrylamide gels and then transferred to PVDF membranes (Millipore, Billerica, Mass.). After being blocked with 5% milk, the membranes were incubated with specific primary antibodies (1:800 dilution for JunD; 1:500 dilution for anti-PRDX3, anti-CDK2, anti-CDK4, anti-KIF2C, anti-EIF1, anti-PEA15, anti-CCNA1, anti-ADRA2B, anti-TCF4, anti-ANAX2, anti-ELMO2, and anti-ERO1-La; 1:200 dilution for anti-PLCD4, anti-c-MYC, and anti-PTMA; 1:3000 dilution for anti-α-Tubulin) overnight at 4° C. and then incubated with appropriate horseradish peroxidase-conjugated secondary antibody for 1 h. […] The relative intensities of specific protein were determined by ImageJ software (NIH version: 1.8.0_112).

[3] = tested on: JunD target genes protein levels in DU145 JunD overexpressed (D1) cells; experiment: as above; settings: 5 μM JQ1, 72 hrs
Description: as §2, §3

Structure (SMILES): Cc1sc2c(c1C)C(c1ccc(Cl)cc1)=N[C@@H](CC(=O)OC(C)(C)C)c1nnc(C)n1-2 [JQ1]
- cell proliferation [1]: significantly reduced
- cell proliferation (DU145 vector cells): significantly reduced
- JunD target genes protein levels [2]: decreased
- JunD target genes protein levels [3]: decreased

— patent US20220002816A1, “IDENTIFICATION OF JUND TARGET GENES FOR INHIBITION OF PROSTATE CANCER CELL GROWTH” (Center for Cancer Research & Therapeutic Development, Clark …, priority 2018, published 2022)
